Test results taken from publication PMC8980701 (Neuropharmacology, 2020).
Counter-ions that a name gives are not always drawn.

Experiments:
Format in all cases: in vivo, male Sprague-Dawley rats
[1] = system: cocaine self-administration; experiment: Cocaine self-administration; conditions: for Active Lever Presses / Inactive Lever Presses: cocaine 0.25 mg/kg/inf, mean ± SEM
[2] = system: cocaine-seeking behavior; experiment: Cocaine-seeking behavior test
[3] = Pharmacokinetics in plasma after single s.c. dose, alone or in combination; conditions: for half-life: t1/2; for concentration at 0 h / concentration at 15 min / concentration at 30 min / concentration at 60 min / concentration at 120 min / concentration at 180 min / concentration at 240 min / concentration at 360 min: Plasma concentration
[4] = pimavanserin 3 mg/kg s.c., 30 min pretreatment
[5] = male, Sprague-Dawley, rat, in vivo, sc, 0.5 mg/kg
[6] = male, Sprague-Dawley, rat, in vivo, sc, 1 mg/kg
[7] = male, Sprague-Dawley, rat, in vivo, sc, 3 mg/kg
[8] = male, Sprague-Dawley, rat, in vivo, sc, 10 mg/kg
[9] = lorcaserin 0.5 mg/kg s.c., 15 min pretreatment
[10] = lorcaserin 1 mg/kg s.c., 15 min pretreatment
[11] = rat plasma, single dose 0.5 mg/kg s.c., drug alone, mean ± SEM
[12] = rat plasma, single dose 1 mg/kg s.c., drug alone, mean ± SEM
[13] = rat plasma, single dose 3 mg/kg s.c., drug alone, mean ± SEM

Which “Effect on lorcaserin-evoked suppression of cocaine intake” value ([1]; SB242084 0.5 mg/kg i.p. plus lorcaserin 1 mg/kg, p < 0.05, Fig. 1B) does the source give for `Cc1cc2c(cc1Cl)N(C(=O)Nc1ccc(Oc3cccnc3C)nc1)CC2` [SB242084, 6-chloro-5-methyl-1-[[2-(2-methylpyrid-3-yloxy)pyrid-5-yl]carbamoyl] indolinedihydrochloride] here?
The value was “prevented this lorcaserin-evoked suppression of cocaine intake”.

With `CC(C)COc1ccc(CNC(=O)N(Cc2ccc(F)cc2)C2CCN(C)CC2)cc1` [Pimavanserin] as the compound, how does the “Effect on cocaine infusions” value ([1]; acute pimavanserin 0.3, 1, 3 mg/kg, vs. control, Fig. 1A) read?
The value was “No main effect”.

And the “Active Lever Presses” value [1, 4]?
The value was 523.00 ± 54.57.

What about the “Inactive Lever Presses” value [1, 4] of the same compound?
The value was 3.44 ± 1.74.

What about the “Effect on inactive lever presses” value ([2]; acute and repeated pimavanserin 3 mg/kg, FA day 10) of the same compound?
Its value is “No main effect”.

What about the “Decrease of cue-reinforced lever presses vs. control” value (shortened to “Decrease”) ([2]; acute pimavanserin 3 mg/kg, FA day 10, p < 0.05) of the same compound?
The value was ~ 41.4%.

And the “Latency to the first response” value ([2]; acute pimavanserin 3 mg/kg, n.s. vs. control (14.39 ± 2.41 s))?
Its value is 29.83 ± 5.43 s.

And the “Increase of latency to the first response vs. control” value ([2]; repeated pimavanserin 3 mg/kg)?
Its value is ~ 2.5 fold.

And the “Decrease” value ([2]; repeated pimavanserin 3 mg/kg twice daily for 10 days, FA day 10, p < 0.05)?
The value was ~ 27.1%.

And the “Latency to the first response” value ([2]; repeated pimavanserin 3 mg/kg, p < 0.05 vs. control (14.39 ± 2.41 s))?
Its value is 35.25 ± 7.81 s.

What about the AUC0-inf [3, 5] of the same compound?
Its AUC0-inf is 15.02 ± 0.32 ng·h/mL.

And the AUC0-t [3, 5]?
Its AUC0-t is 14.40 ± 0.31 ng·h/mL.

And the AUCExtrap [3, 5]?
The AUCExtrap was 3.89 ± 1.42%.

What about the Cl/F [3, 5] of the same compound?
The Cl/F was 556.7 ± 12.2 mL/min/kg.

What about the Cmax [3, 5] of the same compound?
Its Cmax is 12.17 ± 0.38 ng/mL.

And the “Half-life, t1/2” value [3, 5]?
The value was 77.4 ± 27 min.

And the Tmax [3, 5]?
Its Tmax is 17.4 ± 2.4 min.

And the λ [3, 5]?
Its λ is 0.76 ± 0.14 h⁻¹.

And the Plasma concentration ([3]; male, Sprague-Dawley, rat, in vivo, sc, 0.5 mg/kg, 0 h)?
Its Plasma concentration is 0.08 ± 0.05 ng/mL.

And the Plasma concentration ([3]; male, Sprague-Dawley, rat, in vivo, sc, 0.5 mg/kg, 15 min)?
The Plasma concentration was 12.15 ± 0.39 ng/mL.

What about the Plasma concentration ([3]; male, Sprague-Dawley, rat, in vivo, sc, 0.5 mg/kg, 30 min) of the same compound?
Its Plasma concentration is 9.93 ± 0.50 ng/mL.

What about the Plasma concentration ([3]; male, Sprague-Dawley, rat, in vivo, sc, 0.5 mg/kg, 60 min) of the same compound?
Its Plasma concentration is 5.40 ± 0.23 ng/mL.

What about the Plasma concentration ([3]; male, Sprague-Dawley, rat, in vivo, sc, 0.5 mg/kg, 120 min) of the same compound?
The Plasma concentration was 2.09 ± 0.13 ng/mL.

What about the Plasma concentration ([3]; male, Sprague-Dawley, rat, in vivo, sc, 0.5 mg/kg, 180 min) of the same compound?
Its Plasma concentration is 0.86 ± 0.11 ng/mL.

What about the Plasma concentration ([3]; male, Sprague-Dawley, rat, in vivo, sc, 0.5 mg/kg, 240 min) of the same compound?
Its Plasma concentration is 0.45 ± 0.10 ng/mL.

And the Plasma concentration ([3]; male, Sprague-Dawley, rat, in vivo, sc, 0.5 mg/kg, 360 min)?
Its Plasma concentration is 0.13 ± 0.06 ng/mL.

What about the AUC0-inf [3, 6] of the same compound?
The AUC0-inf was 41.72 ± 2.7 ng·h/mL.

And the AUC0-t [3, 6]?
Its AUC0-t is 41.27 ± 2.64 ng·h/mL.

And the AUCExtrap [3, 6]?
Its AUCExtrap is 1.09 ± 0.28%.

What about the Cl/F [3, 6] of the same compound?
Its Cl/F is 409.2 ± 30.2 mL/min/kg.

And the Cmax [3, 6]?
Its Cmax is 30.13 ± 2.17 ng/mL.

And the “Half-life, t1/2” value [3, 6]?
The value was 53.4 ± 3 min.

And the λ [3, 6]?
Its λ is 0.79 ± 0.04 h⁻¹.

And the Plasma concentration ([3]; male, Sprague-Dawley, rat, in vivo, sc, 1 mg/kg, 0 h)?
The Plasma concentration was 0.05 ± 0.03 ng/mL.

And the Plasma concentration ([3]; male, Sprague-Dawley, rat, in vivo, sc, 1 mg/kg, 15 min)?
The Plasma concentration was 30.13 ± 2.17 ng/mL.

What about the Plasma concentration ([3]; male, Sprague-Dawley, rat, in vivo, sc, 1 mg/kg, 30 min) of the same compound?
Its Plasma concentration is 24.50 ± 1.59 ng/mL.

And the Plasma concentration ([3]; male, Sprague-Dawley, rat, in vivo, sc, 1 mg/kg, 60 min)?
Its Plasma concentration is 16.8 ± 1.02 ng/mL.

What about the Plasma concentration ([3]; male, Sprague-Dawley, rat, in vivo, sc, 1 mg/kg, 120 min) of the same compound?
Its Plasma concentration is 6.34 ± 0.39 ng/mL.

And the Plasma concentration ([3]; male, Sprague-Dawley, rat, in vivo, sc, 1 mg/kg, 180 min)?
Its Plasma concentration is 3.55 ± 0.81 ng/mL.

What about the Plasma concentration ([3]; male, Sprague-Dawley, rat, in vivo, sc, 1 mg/kg, 240 min) of the same compound?
The Plasma concentration was 1.12 ± 0.14 ng/mL.

What about the Plasma concentration ([3]; male, Sprague-Dawley, rat, in vivo, sc, 1 mg/kg, 360 min) of the same compound?
The Plasma concentration was 0.35 ± 0.08 ng/mL.

What about the AUCExtrap [3, 7] of the same compound?
Its AUCExtrap is 4.26 ± 0.68%.

What about the λ [3, 7] of the same compound?
The λ was 0.59 ± 0.03 h⁻¹.

And the AUC0-inf ([3]; male, Sprague-Dawley, rat, in vivo, sc, 3 mg/kg, AUC0-inf)?
The AUC0-inf was 198 ± 8.33 ng·h/mL.

What about the AUC0-t ([3]; male, Sprague-Dawley, rat, in vivo, sc, 3 mg/kg, AUC0-t) of the same compound?
The AUC0-t was 189 ± 7.75 ng·h/mL.

What about the Cmax ([3]; male, Sprague-Dawley, rat, in vivo, sc, 3 mg/kg, CMAX) of the same compound?
The Cmax was 79.5 ± 3.76 ng/mL.

What about the CL/F [3, 7] of the same compound?
Its CL/F is 255 mL/min/kg.

What about the half-life ([3]; male, Sprague-Dawley, rat, in vivo, sc, 3 mg/kg, Half-life) of the same compound?
The half-life was 70.8 ± 3 min.

And the concentration at 0 h [3, 7]?
The concentration at 0 h was 0.02 ± 0.02 ng/mL.

And the concentration at 15 min [3, 7]?
The concentration at 15 min was 71.1 ± 5.89 ng/mL.

What about the concentration at 30 min [3, 7] of the same compound?
The concentration at 30 min was 74.5 ± 5.1 ng/mL.

What about the concentration at 60 min [3, 7] of the same compound?
Its concentration at 60 min is 63.4 ± 3.59 ng/mL.

And the concentration at 120 min [3, 7]?
Its concentration at 120 min is 39.8 ± 2.4 ng/mL.

What about the concentration at 180 min [3, 7] of the same compound?
Its concentration at 180 min is 27.8 ± 2.37 ng/mL.

What about the concentration at 240 min [3, 7] of the same compound?
The concentration at 240 min was 15.7 ± 1.48 ng/mL.

And the concentration at 360 min [3, 7]?
Its concentration at 360 min is 4.85 ± 0.62 ng/mL.

What about the Tmax ([3]; male, Sprague-Dawley, rat, in vivo, sc, 3 mg/kg, TMAX) of the same compound?
Its Tmax is 22.8 ± 3.6 min.

And the AUCExtrap [3, 8]?
Its AUCExtrap is 32.22 ± 4.18%.

What about the λ [3, 8] of the same compound?
The λ was 0.21 ± 0.02 h⁻¹.

And the AUC0-inf ([3]; male, Sprague-Dawley, rat, in vivo, sc, 10 mg/kg, AUC0-inf)?
Its AUC0-inf is 1290 ± 112 ng·h/mL.

And the AUC0-t ([3]; male, Sprague-Dawley, rat, in vivo, sc, 10 mg/kg, AUC0-t)?
The AUC0-t was 858 ± 54.7 ng·h/mL.

What about the Cmax ([3]; male, Sprague-Dawley, rat, in vivo, sc, 10 mg/kg, CMAX) of the same compound?
The Cmax was 213 ± 15.9 ng/mL.

What about the CL/F [3, 8] of the same compound?
The CL/F was 135 mL/min/kg.

What about the half-life ([3]; male, Sprague-Dawley, rat, in vivo, sc, 10 mg/kg, Half-life) of the same compound?
Its half-life is 218 ± 32.4 min.

And the concentration at 0 h [3, 8]?
The concentration at 0 h was 0.09 ± 0.41 ng/mL.

And the concentration at 15 min [3, 8]?
The concentration at 15 min was 170 ± 18.8 ng/mL.

And the concentration at 30 min [3, 8]?
Its concentration at 30 min is 190 ± 19.9 ng/mL.

What about the concentration at 60 min [3, 8] of the same compound?
The concentration at 60 min was 208 ± 15.6 ng/mL.

And the concentration at 120 min [3, 8]?
The concentration at 120 min was 179 ± 11.6 ng/mL.

And the concentration at 180 min [3, 8]?
Its concentration at 180 min is 154 ± 15.1 ng/mL.

And the concentration at 240 min [3, 8]?
Its concentration at 240 min is 116 ± 7.99 ng/mL.

And the concentration at 360 min [3, 8]?
The concentration at 360 min was 79.9 ± 6.24 ng/mL.

What about the Tmax ([3]; male, Sprague-Dawley, rat, in vivo, sc, 10 mg/kg, TMAX) of the same compound?
Its Tmax is 57.6 ± 15 min.

What about the Tmax ([3]; male, Sprague-Dawley, rat, in vivo, sc, TMAX) of the same compound?
The Tmax was 15 to 60 min.

And the half-life ([3]; male, Sprague-Dawley, rat, in vivo, sc)?
Its half-life is 53 to 218 min.

With `C[C@H]1CNCCc2ccc(Cl)cc21` [Lorcaserin, (1R)-8-chloro-2,3,4,5-tetrahydro-1-methyl-1H-3-benzazepine] as the compound, how does the “Effect on cocaine intake (infusions)” value ([1]; acute lorcaserin 1 mg/kg, vs. control, p < 0.05, Fig. 1B) read?
The value was “suppressed cocaine intake”.

And the “Active Lever Presses” value [1, 9]?
Its value is 536.23 ± 16.03.

And the “Inactive Lever Presses” value [1, 9]?
The value was 2.08 ± 0.40.

What about the “Active Lever Presses” value [1, 10] of the same compound?
The value was 492.46 ± 18.99.

What about the “Inactive Lever Presses” value [1, 10] of the same compound?
Its value is 3.00 ± 0.91.

And the “Increase of latency to the first response vs. control” value ([2]; acute lorcaserin 1 mg/kg)?
Its value is ~ 6.7 fold.

What about the “Decrease” value ([2]; acute lorcaserin 1 mg/kg, FA day 10, p < 0.05) of the same compound?
Its value is ~ 64.4%.

And the “Suppression of inactive lever presses vs. control” value ([2]; acute lorcaserin 1 mg/kg, p < 0.05)?
The value was ~ 64.6%.

And the “Latency to the first response” value ([2]; acute lorcaserin 1 mg/kg, p < 0.05 vs. control (14.39 ± 2.41 s))?
The value was 95.83 ± 35.78 s.

And the “Suppression of inactive lever presses vs. control” value ([2]; repeated lorcaserin 1 mg/kg)?
Its value is “n.s”.

And the “Decrease” value ([2]; repeated lorcaserin 1 mg/kg twice daily for 10 days, FA day 10, p < 0.05)?
Its value is ~ 36.4%.

What about the “Latency to the first response” value ([2]; repeated lorcaserin 1 mg/kg, n.s. vs. control (14.39 ± 2.41 s)) of the same compound?
Its value is 30.15 ± 5.52 s.

And the AUCExtrap [3, 11]?
Its AUCExtrap is 12.68 ± 2.45%.

What about the λ [3, 11] of the same compound?
The λ was 0.31 ± 0.03 h⁻¹.

What about the AUCExtrap [3, 12] of the same compound?
The AUCExtrap was 8.06 ± 0.47%.

And the λ [3, 12]?
The λ was 0.39 ± 0.02 h⁻¹.

And the AUCExtrap [3, 13]?
The AUCExtrap was 7.97 ± 0.50%.

And the λ [3, 13]?
The λ was 0.38 ± 0.01 h⁻¹.
